Source: ChEMBL document CHEMBL1909046, “DrugMatrix in vitro pharmacology data”

How the values were obtained:
Adenosine receptor A3 = target: T1, Adenosine receptor A3 (Homo sapiens, UniProt P0DMS8); assay type: cell membranes, CHO-K1, Membrane; conditions: for Ki: read-out: Ki;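 as to all read-outs here: radioligand binding assay with AB-MECA serving as the labeled ligand; in other assays of this panel Not Active means under 50% inhibition at 10 µM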
T1 sequence (P0DMS8 whole entry): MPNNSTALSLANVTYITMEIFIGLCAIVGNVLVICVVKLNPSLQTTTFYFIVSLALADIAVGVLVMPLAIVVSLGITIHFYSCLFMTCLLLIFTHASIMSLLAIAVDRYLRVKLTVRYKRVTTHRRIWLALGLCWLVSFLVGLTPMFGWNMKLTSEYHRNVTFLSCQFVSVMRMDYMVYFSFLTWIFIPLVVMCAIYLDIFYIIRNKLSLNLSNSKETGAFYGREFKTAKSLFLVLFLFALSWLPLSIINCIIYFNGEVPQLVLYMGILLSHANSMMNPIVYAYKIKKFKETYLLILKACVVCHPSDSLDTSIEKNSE

[1] = target: T2, Amine oxidase [flavin-containing] A (Homo sapiens, UniProt P21397); experiment: DRUGMATRIX: Monoamine Oxidase MAO-A enzyme inhibition (substrate: Kynuramine); set-up: species or system BTI-TN-5B1-4; conditions: bti-tn-5b1-4; Not Active = under 50% inhibition at 10 µM
T2 sequence (P21397 whole entry): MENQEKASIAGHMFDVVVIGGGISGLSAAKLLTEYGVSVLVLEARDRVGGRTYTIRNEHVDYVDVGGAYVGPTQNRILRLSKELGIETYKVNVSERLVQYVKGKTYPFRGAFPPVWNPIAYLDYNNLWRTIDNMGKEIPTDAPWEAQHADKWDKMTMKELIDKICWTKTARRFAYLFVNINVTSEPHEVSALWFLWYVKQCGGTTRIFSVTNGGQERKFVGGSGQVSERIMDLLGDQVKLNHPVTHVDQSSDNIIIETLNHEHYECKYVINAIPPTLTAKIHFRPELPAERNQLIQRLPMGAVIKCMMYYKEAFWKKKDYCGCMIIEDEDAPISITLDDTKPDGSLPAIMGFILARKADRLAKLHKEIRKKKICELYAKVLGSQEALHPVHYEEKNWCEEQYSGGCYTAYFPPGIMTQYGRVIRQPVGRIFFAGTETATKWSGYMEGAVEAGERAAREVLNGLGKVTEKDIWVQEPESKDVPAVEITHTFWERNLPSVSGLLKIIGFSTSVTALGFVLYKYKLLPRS

[2] = target: T3, Angiotensin-converting enzyme (Oryctolagus cuniculus, UniProt P12822); assay type: tissue-based, Lung;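 also: enzymatic inhibition of angiotensin-converting enzyme measured with FAPGG as the substrate; in other assays of this panel Not Active means under 50% inhibition at 10 µM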
T3 sequence (P12822 whole entry): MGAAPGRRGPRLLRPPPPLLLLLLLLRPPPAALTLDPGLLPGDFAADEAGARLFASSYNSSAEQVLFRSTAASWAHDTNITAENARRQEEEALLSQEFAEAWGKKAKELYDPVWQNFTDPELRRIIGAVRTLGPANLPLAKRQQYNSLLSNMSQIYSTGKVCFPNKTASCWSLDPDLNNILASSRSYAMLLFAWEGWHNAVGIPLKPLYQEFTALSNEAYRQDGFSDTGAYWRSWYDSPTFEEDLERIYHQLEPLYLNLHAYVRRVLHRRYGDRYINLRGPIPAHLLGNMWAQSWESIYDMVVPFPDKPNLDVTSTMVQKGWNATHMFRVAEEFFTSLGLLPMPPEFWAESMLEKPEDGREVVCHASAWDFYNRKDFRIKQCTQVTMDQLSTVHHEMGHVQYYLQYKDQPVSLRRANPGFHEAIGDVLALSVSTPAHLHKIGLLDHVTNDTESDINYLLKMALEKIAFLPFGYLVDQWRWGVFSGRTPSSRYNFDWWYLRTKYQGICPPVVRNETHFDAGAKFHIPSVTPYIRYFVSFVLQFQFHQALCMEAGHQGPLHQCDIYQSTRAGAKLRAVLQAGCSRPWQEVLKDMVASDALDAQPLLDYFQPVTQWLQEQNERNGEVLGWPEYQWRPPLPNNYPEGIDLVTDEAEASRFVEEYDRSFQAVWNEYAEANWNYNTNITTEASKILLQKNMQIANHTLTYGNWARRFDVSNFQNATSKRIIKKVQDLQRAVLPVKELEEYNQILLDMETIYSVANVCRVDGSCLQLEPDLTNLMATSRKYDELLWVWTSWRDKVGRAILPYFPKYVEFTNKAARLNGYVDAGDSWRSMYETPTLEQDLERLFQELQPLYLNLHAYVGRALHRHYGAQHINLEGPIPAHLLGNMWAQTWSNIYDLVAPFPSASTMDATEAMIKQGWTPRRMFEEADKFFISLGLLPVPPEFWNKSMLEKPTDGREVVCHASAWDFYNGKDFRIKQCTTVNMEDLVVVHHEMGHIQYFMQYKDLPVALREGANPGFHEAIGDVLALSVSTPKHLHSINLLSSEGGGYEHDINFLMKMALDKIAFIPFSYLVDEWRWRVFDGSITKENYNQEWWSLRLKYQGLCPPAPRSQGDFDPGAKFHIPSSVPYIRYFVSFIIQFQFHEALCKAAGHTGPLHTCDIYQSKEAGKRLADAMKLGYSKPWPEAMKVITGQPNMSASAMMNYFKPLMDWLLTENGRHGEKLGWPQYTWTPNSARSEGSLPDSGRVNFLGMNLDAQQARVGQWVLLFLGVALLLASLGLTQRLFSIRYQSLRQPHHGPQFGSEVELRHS

[3] = DRUGMATRIX: Calcium Channel Type L, Phenylalkylamine radioligand binding (ligand: [3H] (-)-Desmethoxyverapamil (D-888)); assay type: cell membranes, Rattus norvegicus, Wistar, Brain, Membrane; conditions: Not Active = under 50% inhibition at 10 µM
[4] = target: C-C chemokine receptor type 2 (Homo sapiens, UniProt P41597); assay type: cell membranes, Membrane; conditions: cho-k1; also: in other assays of this panel Not Active means under 50% inhibition at 10 µM
Sequence of C-C chemokine receptor type 2 (P41597 whole entry): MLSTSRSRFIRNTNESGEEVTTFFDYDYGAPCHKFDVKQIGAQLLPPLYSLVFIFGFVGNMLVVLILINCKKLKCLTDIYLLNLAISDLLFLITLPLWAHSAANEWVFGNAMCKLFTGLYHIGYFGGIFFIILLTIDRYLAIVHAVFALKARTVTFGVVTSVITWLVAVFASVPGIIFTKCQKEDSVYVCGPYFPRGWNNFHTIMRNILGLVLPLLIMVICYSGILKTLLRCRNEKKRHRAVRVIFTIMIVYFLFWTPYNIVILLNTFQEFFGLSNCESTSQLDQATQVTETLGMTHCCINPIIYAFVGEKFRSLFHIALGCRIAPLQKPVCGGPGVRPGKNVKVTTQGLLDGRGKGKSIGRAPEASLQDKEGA

Vasopressin V1a receptor = Vasopressin V1a receptor (Homo sapiens, UniProt P37288); assay type: cell membranes, Membrane; conditions: hek293; also: in other assays of this panel Not Active means under 50% inhibition at 10 µM
Sequence of Vasopressin V1a receptor (P37288 whole entry): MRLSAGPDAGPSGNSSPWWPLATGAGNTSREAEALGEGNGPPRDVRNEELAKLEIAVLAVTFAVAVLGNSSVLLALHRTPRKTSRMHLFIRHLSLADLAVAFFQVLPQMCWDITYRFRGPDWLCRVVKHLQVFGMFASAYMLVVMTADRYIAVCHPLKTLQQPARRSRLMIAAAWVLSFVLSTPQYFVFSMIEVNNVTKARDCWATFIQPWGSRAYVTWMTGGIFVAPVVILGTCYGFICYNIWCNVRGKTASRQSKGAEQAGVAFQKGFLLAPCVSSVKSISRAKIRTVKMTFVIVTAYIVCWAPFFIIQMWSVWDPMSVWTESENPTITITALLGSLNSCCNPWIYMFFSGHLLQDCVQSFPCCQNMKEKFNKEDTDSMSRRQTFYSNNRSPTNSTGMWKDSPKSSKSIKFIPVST

Cytochrome P450 2A6 = target: T4, Cytochrome P450 2A6 (Homo sapiens, UniProt P11509); conditions: bti-tn-5b1-4; also: in other assays of this panel Not Active means under 50% inhibition at 10 µM
T4 sequence (P11509 whole entry): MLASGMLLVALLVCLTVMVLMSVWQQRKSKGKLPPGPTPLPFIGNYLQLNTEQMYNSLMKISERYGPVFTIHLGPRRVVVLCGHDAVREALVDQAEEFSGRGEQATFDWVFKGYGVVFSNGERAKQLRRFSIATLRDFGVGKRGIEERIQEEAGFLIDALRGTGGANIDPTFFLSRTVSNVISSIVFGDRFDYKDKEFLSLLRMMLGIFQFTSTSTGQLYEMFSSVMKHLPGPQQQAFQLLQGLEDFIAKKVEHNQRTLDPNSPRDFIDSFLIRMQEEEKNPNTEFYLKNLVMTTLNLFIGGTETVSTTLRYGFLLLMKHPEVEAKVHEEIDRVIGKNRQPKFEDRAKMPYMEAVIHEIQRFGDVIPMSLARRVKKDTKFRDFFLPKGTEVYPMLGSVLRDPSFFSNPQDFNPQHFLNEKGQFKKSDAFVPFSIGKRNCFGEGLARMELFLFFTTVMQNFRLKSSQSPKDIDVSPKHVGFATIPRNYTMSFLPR

Cc1c(C)c2c(c(C)c1O)CCC(C)(CN1CCN(c3cc(N4CCCC4)nc(N4CCCC4)n3)CC1)O2 (stereo not drawn)
10.8 µM: IC50 (Adenosine receptor A3; read-out: IC50)
Not Active: IC50 [1] | IC50 [2] | IC50 [3] | Ki [3] | IC50 [4] | IC50 (Vasopressin V1a receptor)
6.08 µM: Ki (Adenosine receptor A3)

COc1ccc(CCN(C)CCCC(C#N)(c2ccc(OC)c(OC)c2)C(C)C)cc1OC (stereo not drawn)
0.047 µM: IC50 ([3]; read-out: IC50)
Not Active: IC50 (Adenosine receptor A3; cho-k1) | IC50 [1] | IC50 [2] | IC50 (Cytochrome P450 2A6) | Ki (Cytochrome P450 2A6) | IC50 [4] | IC50 (Vasopressin V1a receptor)
0.045 µM: Ki ([3]; read-out: Ki)

CC(C)Cc1ccc([C@@H](C)C(=O)O)cc1 [(R)-IBUPROPHEN]
Not Active: IC50 (Adenosine receptor A3; cho-k1) | IC50 [1] | IC50 [2] | IC50 [3] | Ki [3] | IC50 (Cytochrome P450 2A6) | Ki (Cytochrome P450 2A6) | IC50 [4] | IC50 (Vasopressin V1a receptor)

CN(C)CCOC(c1ccccc1)c1ccccc1 [DIPHENHYDRAMINE]
Not Active: IC50 (Adenosine receptor A3; cho-k1) | IC50 [1] | IC50 [2] | IC50 [4] | IC50 (Vasopressin V1a receptor)

Clc1ccc(COC(Cn2ccnc2)c2ccc(Cl)cc2Cl)cc1 (stereo not drawn) [ECONAZOLE]
Not Active: IC50 [1] | IC50 [2] | IC50 (Cytochrome P450 2A6) | Ki (Cytochrome P450 2A6) | IC50 [4] | IC50 (Vasopressin V1a receptor)

CCN(CC)CCOc1ccc(/C(=C(/Cl)c2ccccc2)c2ccccc2)cc1 [ENCLOMIPHENE]
Not Active: IC50 [1] | IC50 [2] | IC50 (Cytochrome P450 2A6) | Ki (Cytochrome P450 2A6) | IC50 [4] | IC50 (Vasopressin V1a receptor)

Fc1ccc(C(c2ccc(F)cc2)N2CCN(C/C=C/c3ccccc3)CC2)cc1 [FLUNARIZINE]
Not Active: IC50 [1] | IC50 [2] | IC50 (Cytochrome P450 2A6) | Ki (Cytochrome P450 2A6) | IC50 [4] | IC50 (Vasopressin V1a receptor)
5.2 µM: IC50 (Adenosine receptor A3; read-out: IC50)
2.94 µM: Ki (Adenosine receptor A3)

CNCCC(Oc1ccc(C(F)(F)F)cc1)c1ccccc1 (stereo not drawn) [FLUOXETINE]
Not Active: IC50 (Adenosine receptor A3; cho-k1) | IC50 [1] | IC50 [2] | IC50 (Cytochrome P450 2A6) | Ki (Cytochrome P450 2A6) | IC50 [4] | IC50 (Vasopressin V1a receptor)

Cc1ccc(NC(=O)c2ccc(CN3CCN(C)CC3)cc2)cc1Nc1nccc(-c2cccnc2)n1 [IMATINIB]
Not Active: IC50 (Adenosine receptor A3; cho-k1) | IC50 [1] | IC50 [2] | IC50 (Cytochrome P450 2A6) | Ki (Cytochrome P450 2A6) | IC50 [4] | IC50 (Vasopressin V1a receptor)

CC(C)Oc1ccc2c(=O)c(-c3ccccc3)coc2c1 [IPRIFLAVONE]
Not Active: IC50 (Adenosine receptor A3; cho-k1) | IC50 [1] | IC50 [2] | IC50 [3] | Ki [3] | IC50 (Cytochrome P450 2A6) | Ki (Cytochrome P450 2A6) | IC50 [4] | IC50 (Vasopressin V1a receptor)

CC(C)NCC(O)c1ccc(O)c(O)c1 (stereo not drawn) [ISOPROTERENOL]
Not Active: IC50 (Adenosine receptor A3; cho-k1) | IC50 [1] | IC50 [2] | IC50 [3] | Ki [3] | IC50 (Cytochrome P450 2A6) | Ki (Cytochrome P450 2A6) | IC50 [4] | IC50 (Vasopressin V1a receptor)

CNC1(c2ccccc2Cl)CCCCC1=O (stereo not drawn) [KETAMINE]
Not Active: IC50 (Adenosine receptor A3; cho-k1) | IC50 [1] | IC50 [2] | IC50 [3] | Ki [3] | IC50 (Cytochrome P450 2A6) | Ki (Cytochrome P450 2A6) | IC50 [4] | IC50 (Vasopressin V1a receptor)

N#Cc1ccc(C(c2ccc(C#N)cc2)n2cncn2)cc1 [LETROZOLE]
Not Active: IC50 (Adenosine receptor A3; cho-k1) | IC50 [1] | IC50 [2] | IC50 [3] | Ki [3] | IC50 (Cytochrome P450 2A6) | Ki (Cytochrome P450 2A6) | IC50 [4] | IC50 (Vasopressin V1a receptor)

CCN1CCC[C@H]1CNC(=O)c1cc(S(N)(=O)=O)ccc1OC [LEVOSULPIRIDE]
Not Active: IC50 (Adenosine receptor A3; cho-k1) | IC50 [1] | IC50 [2] | IC50 [3] | Ki [3] | IC50 (Cytochrome P450 2A6) | Ki (Cytochrome P450 2A6) | IC50 [4] | IC50 (Vasopressin V1a receptor)

CCN(CC)CC(=O)Nc1c(C)cccc1C [LIDOCAINE]
Not Active: IC50 (Adenosine receptor A3; cho-k1) | IC50 [1] | IC50 [2] | IC50 [3] | Ki [3] | IC50 (Cytochrome P450 2A6) | Ki (Cytochrome P450 2A6) | IC50 [4] | IC50 (Vasopressin V1a receptor)

O=C1Nc2ccc(Cl)cc2C(c2ccccc2Cl)=NC1O (stereo not drawn) [LORAZEPAM]
Not Active: IC50 (Adenosine receptor A3; cho-k1) | IC50 [1] | IC50 [2] | IC50 [3] | Ki [3] | IC50 (Cytochrome P450 2A6) | Ki (Cytochrome P450 2A6) | IC50 [4] | IC50 (Vasopressin V1a receptor)

CO[C@@H]1[C@@H](OC)[C@H](C)[C@@](O)(CC(=O)O)O[C@H]1[C@H](C)[C@H]1O[C@@]2(CC[C@@](C)([C@H]3CC[C@@](C)([C@@H]4O[C@@H]([C@H]5O[C@](C)(O)[C@H](C)C[C@@H]5C)C[C@@H]4O[C@@H]4C[C@H](OC)[C@@H](OC)[C@H](C)O4)O3)O2)C[C@H](O)[C@H]1C [MADURAMICIN ACID]
Not Active: IC50 (Adenosine receptor A3; cho-k1) | IC50 [1] | IC50 [2] | IC50 [3] | Ki [3] | IC50 (Cytochrome P450 2A6) | Ki (Cytochrome P450 2A6) | IC50 [4] | IC50 (Vasopressin V1a receptor)

COc1c2occc2cc2ccc(=O)oc12 [METHOXSALEN]
Not Active: IC50 (Adenosine receptor A3; cho-k1) | IC50 [1] | IC50 [2] | IC50 [3] | Ki [3] | IC50 (Cytochrome P450 2A6) | Ki (Cytochrome P450 2A6) | IC50 [4] | IC50 (Vasopressin V1a receptor)

CN[C@H]1CC[C@@H](c2ccc(Cl)c(Cl)c2)c2ccccc21 [SERTRALINE]
Not Active: IC50 (Adenosine receptor A3; cho-k1) | IC50 [1] | IC50 [2] | IC50 (Cytochrome P450 2A6) | Ki (Cytochrome P450 2A6) | IC50 [4] | IC50 (Vasopressin V1a receptor)
